From EPA's ToxRefDB 2

Tests used:
rat [1] = details: Developmental neurotoxicity study, sprague dawley, Oral, Gavage/Intubation, dose end: 97 PND, group: cannot be grouped
rat [2] = details: Subchronic oral toxicity in rodents, sprague dawley, Gavage/Intubation, dose end: 12 week, group: systemic, systemic / clinical chemistry / alkaline phosphatase (alp/alk) / alkaline phosphatase (alp/alk) + systemic / clinical chemistry / albumin / …
rat [3] = details: Prenatal developmental toxicity study, wistar, Dermal, Topical, dose end: 16 GD
rabbit = details: Prenatal developmental toxicity study, new zealand white, Dermal, Topical, dose end: 19 GD
rat [4] = details: Prenatal developmental toxicity study; wistar; Oral; Gavage/Intubation; dose end: 15 GD; group: developmental; developmental / developmental malformation / bone / incomplete ossification + developmental / developmental malformation / bone / …
rat [5] = details: Prenatal developmental toxicity study, sprague dawley, Injection, Subcutaneous, dose end: 8 GD
rat [6] = details: Subchronic oral toxicity in rodents, sprague dawley, Gavage/Intubation, dose end: 13 week, group: systemic
rat [7] = details: Developmental neurotoxicity study; sprague dawley; Oral; Gavage/Intubation; dose end: 90 PND; group: cannot be grouped; developmental / developmental landmark / eye opening / eye opening + reproductive / offspring survival early / dead fetuses / dead fetuses…
mouse [8] = details: Sub-acute repeat dose toxicity, other, Oral, Gavage/Intubation, dose end: 21 day, group: systemic
rat [9] = details: Subchronic oral toxicity in rodents, wistar, Feed, dose end: 3 month, group: systemic
rat [10] = details: Subchronic oral toxicity in rodents, wistar, Feed, dose end: 6 month, group: systemic
rat [11] = details: Multigenerational reproductive toxicity study, wistar, Oral, Feed, dose end: 2 generation
rat [12] = details: Peri- and post-natal toxicity study (Segment III), wistar, Oral, [Not Specified], dose end: 21 PND
mouse [13] = details: Combined chronic toxicity/carcinogenicity; other; Oral; Feed; dose end: 101 week; group: systemic; systemic / pathology microscopic / liver / enlarged vacuoles + systemic / pathology microscopic / liver / focal cellular change + systemic…
mouse [14] = details: Subchronic oral toxicity in rodents, Feed, dose end: 90 day, group: systemic, systemic / pathology microscopic / liver / clear cell focus + systemic / pathology microscopic / liver / [other] + systemic / clinical …
dog = details: Chronic toxicity, beagle, Oral, Capsule, dose end: 52 week, group: systemic
mouse [15] = details: Prenatal developmental toxicity study, cd1, Oral, Gavage/Intubation, dose end: 16 GD
rat [16] = details: Combined chronic toxicity/carcinogenicity, other, Oral, Feed, dose end: 104 week, group: systemic
mouse [17] = details: Prenatal developmental toxicity study, cd1, Oral, Gavage/Intubation, dose end: 16 GD, group: maternal
[18] = systemic / in life observation / body weight / offspring (pup) weight gain
[19] = group: developmental, developmental / developmental malformation / bone / supernumerary
[20] = group: developmental, developmental / developmental malformation / bone / supernumerary + systemic / in life observation / body weight / fetal weight
[21] = group: maternal, systemic / in life observation / body weight / body weight + systemic / in life observation / body weight / body weight gain + systemic / in…
[22] = group: maternal, systemic / in life observation / clinical signs / [other] + systemic / in life observation / clinical signs / erythema + systemic / in life …
[23] = group: developmental, systemic / in life observation / body weight / fetal weight
[24] = group: developmental, developmental / developmental malformation / general / crown-rump length + systemic / in life observation / body weight / fetal weight
[25] = group: maternal, reproductive / reproductive performance / resorptions / resorptions + systemic / in life observation / body weight / body weight + systemic…
[26] = systemic / clinical chemistry / alkaline phosphatase (alp/alk) / alkaline phosphatase (alp/alk) + systemic / hematology / erythrocyte (rbc) …
[27] = systemic / clinical chemistry / alkaline phosphatase (alp/alk) / alkaline phosphatase (alp/alk) + systemic / pathology microscopic / bone / …
[28] = systemic / hematology / hematocrit (hct) / hematocrit (hct) + systemic / hematology / hemoglobin (hgb) / hemoglobin (hgb)
[29] = systemic / organ weight / adrenal gland / absolute + systemic / organ weight / adrenal gland / relative to body weight + systemic / …
[30] = systemic / clinical chemistry / glucose / glucose
[31] = systemic / clinical chemistry / glucose / glucose + systemic / clinical chemistry / lactic acid dehydrogenase (ldh) / lactic acid …
[32] = group: offspring, developmental / offspring survival late / viability index / viability index + developmental / offspring survival late / lactation index / …
[33] = group: offspring, developmental / offspring survival late / viability index / viability index + reproductive / offspring survival early / dead fetuses / dead …
[34] = group: parental, systemic / in life observation / body weight / body weight gain
[35] = group: parental, systemic / in life observation / body weight / body weight gain + systemic / in life observation / body weight / body weight + systemic / …
[36] = group: reproductive, reproductive / reproductive performance / gestational length / gestational length + reproductive / reproductive performance / dystocia / …
[37] = group: developmental, developmental / offspring survival late / viability index / viability index
[38] = group: maternal, reproductive / offspring survival early / dead fetuses / dead fetuses + reproductive / offspring survival early / litter size / litter size
[39] = group: parental, systemic / in life observation / food consumption / food consumption + systemic / in life observation / mortality / mortality
[40] = systemic / clinical chemistry / alkaline phosphatase (alp/alk) / alkaline phosphatase (alp/alk) + systemic / in life observation / body …
[41] = group: developmental, developmental / developmental malformation / bone / supernumerary + developmental / developmental malformation / bone / [other] + …
[42] = group: maternal, reproductive / reproductive performance / estrous cycle / corpora lutea
[43] = systemic / pathology microscopic / thyroid gland / neoplasm nos + systemic / in life observation / body weight / body weight + systemic / in…
[44] = systemic / in life observation / body weight / body weight gain + systemic / in life observation / body weight / dam weight + systemic / in …

Work on `CC1=C(/C=C/C(C)=C/C=C/C(C)=C/C(=O)O)C(C)(C)CCC1` [trans-Retinoic acid] yielded an LOAEL (rat [1]; [18]) of over 6 mg/kg/day, an NOAEL (rat [1]; [18]) of at least 6 mg/kg/day and an LEL (rat [1]; systemic / in life observation / clinical signs / impaired foot spread) of 2.5 mg/kg/day. It also gave an LEL (rat [2]) of 0.5 mg/kg/day, an LOAEL (rat [2]) of over 5 mg/kg/day and an NEL (rat [2]) of under 0.5 mg/kg/day. It also gave an NOAEL (rat [2]) of at least 5 mg/kg/day, an LEL (rat [3]; [19]) of 2.5 mg/kg/day and an LOAEL (rat [3]; [20]) of over 20 mg/kg/day. It also gave an NEL (rat [3]; [20]) of 1 mg/kg/day, an NOAEL (rat [3]; [20]) of at least 20 mg/kg/day and an LOAEL (rat [3]; [21]) of over 20 mg/kg/day. For the same compound, the NOAEL (rat [3]; [21]) was at least 20 mg/kg/day, the LEL (rat [3]; [22]) was 1 mg/kg/day and the NEL (rat [3]; [22]) was under 1 mg/kg/day. It also gave an LEL (rabbit; [23]) of 0.5 mg/kg/day, an LOAEL (rabbit; [23]) of over 0.5 mg/kg/day and an NEL (rabbit; [23]) of 0.05 mg/kg/day. The NOAEL (rabbit; [23]) was at least 0.5 mg/kg/day, the LEL (rabbit; [21]) was 0.05 mg/kg/day and the LOAEL (rabbit; [21]) was over 0.5 mg/kg/day. It also gave an NEL (rabbit; [21]) of under 0.05 mg/kg/day, an NOAEL (rabbit; [21]) of at least 0.5 mg/kg/day and an LEL (rat [4]) of 5 mg/kg/day. It also gave an LOAEL (rat [4]) of over 10 mg/kg/day, an NEL (rat [4]) of 2.5 mg/kg/day and an NOAEL (rat [4]) of at least 10 mg/kg/day. For the same compound, the LEL (rat [5]; [24]) was 48.1 mg/kg/day, the LOAEL (rat [5]; [24]) was over 144 mg/kg/day and the NEL (rat [5]; [24]) was 24 mg/kg/day. For the same compound, the NOAEL (rat [5]; [24]) was at least 144 mg/kg/day, the LOAEL (rat [5]; [25]) was over 144 mg/kg/day and the NEL (rat [5]; [25]) was 48.1 mg/kg/day. The NOAEL (rat [5]; [25]) was at least 144 mg/kg/day, the LEL (rat [5]; group: maternal, systemic / in life observation / body weight / body weight + systemic / in life observation / clinical signs / abnormal gait + systemic / in…) was 96.1 mg/kg/day and the LOAEL (rat [6]; [26]) was over 50 mg/kg/day. It also gave an NEL (rat [6]; [26]) of 1 mg/kg/day, an NOAEL (rat [6]; [26]) of at least 50 mg/kg/day and an LEL (rat [6]; systemic / clinical chemistry / alkaline phosphatase (alp/alk) / alkaline phosphatase (alp/alk) + systemic / pathology microscopic / lymph …) of 4 mg/kg/day. It also gave an LEL (rat [7]) of 2.5 mg/kg/day, an LOAEL (rat [7]) of over 2.5 mg/kg/day and an NEL (rat [7]) of under 2.5 mg/kg/day. It also gave an NOAEL (rat [7]) of at least 2.5 mg/kg/day, an LOAEL (mouse [8]; [27]) of over 100 mg/kg/day and an NOAEL (mouse [8]; [27]) of at least 100 mg/kg/day. For the same compound, the LEL (mouse [8]; [28]) was 3 mg/kg/day and the NEL (mouse [8]; [28]) was under 3 mg/kg/day.

In the case of `C=CCOC(Cn1ccnc1)c1ccc(Cl)cc1Cl` (stereo unspecified) [Imazalil], the LOAEL (rat [9]; [29]) is reported as 37.9 mg/kg/day, the NOAEL (rat [9]; [29]) is reported as 18.7 mg/kg/day and the NEL (rat [9]; systemic / organ weight / liver / absolute + systemic / organ weight / adrenal gland / absolute + systemic / organ weight / adrenal gland / …) is reported as 90.1 mg/kg/day. The LEL (rat [10]; [30]) was 1.25 mg/kg/day, the NEL (rat [10]; [30]) was under 1.25 mg/kg/day and the LOAEL (rat [10]; [31]) was 20 mg/kg/day. The NOAEL (rat [10]; [31]) was 5 mg/kg/day, the LEL (rat [11]; [32]) was 5 mg/kg/day and the NEL (rat [11]; [32]) was under 5 mg/kg/day. The LOAEL (rat [11]; [33]) was 80 mg/kg/day, the NOAEL (rat [11]; [33]) was 20 mg/kg/day and the NEL (rat [11]; [34]) was 20 mg/kg/day. The NOAEL (rat [11]; [34]) was 20 mg/kg/day, the LEL (rat [11]; [35]) was 80 mg/kg/day and the LOAEL (rat [11]; [35]) was 80 mg/kg/day. It also gave an LOAEL (rat [11]; group: reproductive, reproductive / reproductive performance / gestational length / gestational length) of 80 mg/kg/day, an LEL (rat [11]; [36]) of 80 mg/kg/day and an NEL (rat [11]; [36]) of 20 mg/kg/day. The NOAEL (rat [11]; [36]) was 20 mg/kg/day, the LEL (rat [12]; [37]) was 80 mg/kg/day and the LOAEL (rat [12]; [37]) was over 80 mg/kg/day. It also gave an NEL (rat [12]; [37]) of 20 mg/kg/day, an NOAEL (rat [12]; [37]) of at least 80 mg/kg/day and an LEL (rat [12]; [38]) of 80 mg/kg/day. It also gave an LOAEL (rat [12]; [38]) of over 80 mg/kg/day, an NEL (rat [12]; [38]) of 20 mg/kg/day and an NOAEL (rat [12]; [38]) of at least 80 mg/kg/day. It also gave an LEL (rat [12]; [39]) of 80 mg/kg/day, an LOAEL (rat [12]; [39]) of over 80 mg/kg/day and an NEL (rat [12]; [39]) of 20 mg/kg/day. It also gave an NOAEL (rat [12]; [39]) of at least 80 mg/kg/day, an LEL (mouse [13]) of 28 mg/kg/day and an LOAEL (mouse [13]) of 28 mg/kg/day. It also gave an NEL (mouse [13]) of 6.67 mg/kg/day, an NOAEL (mouse [13]) of 6.67 mg/kg/day and an LEL (mouse [14]) of 38.6 mg/kg/day. It also gave an LOAEL (mouse [14]) of 38.6 mg/kg/day, an NEL (mouse [14]) of 9.5 mg/kg/day and an NOAEL (mouse [14]) of 9.5 mg/kg/day. The LOAEL (dog; [40]) was 20 mg/kg/day, the NEL (dog; [40]) was 1.25 mg/kg/day and the NOAEL (dog; [40]) was 2.5 mg/kg/day. The LEL (dog; systemic / organ weight / liver / absolute + systemic / organ weight / liver / relative to body weight) was 2.5 mg/kg/day, the LEL (mouse [15]; [19]) was 80 mg/kg/day and the LOAEL (mouse [15]; [19]) was 80 mg/kg/day. For the same compound, the NEL (mouse [15]; [41]) was 40 mg/kg/day, the NOAEL (mouse [15]; [41]) was 40 mg/kg/day and the LEL (mouse [15]; [42]) was 10 mg/kg/day. The NEL (mouse [15]; [42]) was under 10 mg/kg/day, the LOAEL (mouse [15]; group: maternal, systemic / in life observation / body weight / body weight gain + systemic / in life observation / food consumption / food consumption) was 40 mg/kg/day and the NOAEL (mouse [15]; group: maternal, systemic / in life observation / body weight / body weight gain + systemic / in life observation / food consumption / food consumption + …) was 10 mg/kg/day. The LEL (rat [16]; systemic / pathology microscopic / liver / pigmentation) was 14.6 mg/kg/day, the NEL (rat [16]; systemic / pathology microscopic / liver / pigmentation + systemic / clinical chemistry / alanine aminotransferase (alt/sgpt) / alanine …) was 3.6 mg/kg/day and the LOAEL (rat [16]; [43]) was 65.8 mg/kg/day. For the same compound, the NOAEL (rat [16]; [43]) was 10.8 mg/kg/day, the LOAEL (mouse [17]; systemic / in life observation / body weight / body weight gain) was 80 mg/kg/day and the LEL (mouse [17]; [44]) was 80 mg/kg/day. It also gave an NEL (mouse [17]; [44]) of 40 mg/kg/day and an NOAEL (mouse [17]; [44]) of 40 mg/kg/day.
